Measured values as given in patent US5002948A, “3-[4-[4-substituted-1-piperazinyl]-1-butyl]-1H-2,3-dihydroindoles” (H. Lundbeck A/S, priority 1988, dated 1991).

Legend:
Type in all cases: in vivo, Male Wistar rats
5-HT1A [1] = target: T1, 5-HT1A (Rattus norvegicus, UniProt P19327); assay: Generalization to discriminative stimulus properties induced by 8-OHDPAT in rats (agonism); design: from tissue; host or cells: whole living animal, male Wistar rats, s.c. dosing; conditions: rat, sc, usually 30 or 45 min before test; substituted for 8-OHDPAT; per cent drug response; read-out: ED50, 8-OH DPAT cue agonism
T1 sequence (P19327 1-422): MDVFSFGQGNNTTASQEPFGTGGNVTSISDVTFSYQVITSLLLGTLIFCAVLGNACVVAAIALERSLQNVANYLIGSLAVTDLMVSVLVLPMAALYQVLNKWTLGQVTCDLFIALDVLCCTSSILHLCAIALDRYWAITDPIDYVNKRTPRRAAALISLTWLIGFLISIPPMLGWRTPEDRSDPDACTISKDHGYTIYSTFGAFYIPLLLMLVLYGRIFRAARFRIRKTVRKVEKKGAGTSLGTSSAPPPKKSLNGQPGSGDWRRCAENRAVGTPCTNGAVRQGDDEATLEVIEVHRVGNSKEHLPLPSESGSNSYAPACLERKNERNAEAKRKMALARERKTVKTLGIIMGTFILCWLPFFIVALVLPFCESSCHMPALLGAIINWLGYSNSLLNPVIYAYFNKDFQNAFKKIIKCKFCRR
From the text: GENERALIZATION TO DISCRIMINATIVE STIMULUS PROPERTIES INDUCED BY 8-OHDPAT IN RATS.
This test model is used to determine the agonist effects of a test compound on 5-HT1A receptors in vivo. A related method is described by Tricklebank, M. D., J. Neill, E. J. Kidd and J. R. Fozard, Eur. J. Pharmacol. 133, 37-56, 1987; Arnt, J., Pharmacology & Toxicology 64, 165-172, 1989.
The procedure is the same as for the antagonism test mentioned above, except that the test compound is substituted for 8-OHDPAT and injected s.c. usually 30 minutes or 45 minutes respectively before beginning of the test.
The per cent drug response obtained for each dose of test compound is used to calculate ED50 values by log-probit analysis.

5-HT1A [2] = target: T1, 5-HT1A; assay: Inhibition of 5-methoxy-N,N-dimethyltryptamine (5-MeODMT) induced 5-HT syndrome in rats; design: Male Wistar rats (Mol:Wist) weighing 170-240 g are used; from tissue; host or cells: whole living animal, male Wistar rats (Mol:Wist), s.c. dosing; conditions: rat, sc
From the text: INHIBITION OF 5-METHOXY-N,N-[…] INDUCED 5-HT SYNDROME IN RATS
The so-called 5-HT syndrome is a characteristic behaviour pattern which is induced by 5-HT agonists with effects on 5-HT, possibly 5-HT1A receptors, although lack of specific antagonists make it difficult to evaluate specificity (Smith, L. M. and S. J. Peroutka, Pharmacol. Biochem. & Behaviour 24, 1513-1519, 1986; Tricklebank, M. et al., Eur. J. Pharmacol. 117, 15-24, 1985).
Male Wistar rats (Mol:Wist) weighing 170-240 g are used. Test substrate is injected subcutaneously 30 min. before 5-methoxy-N,N-dimethyltryptamine 5 mg/kg, s.c. Four rats are used for each dose. A control group pretreated with saline is included each test day. Ten, 15 and 20 min later the rats are observed for presence of serotonin (5-HT) syndrome: (1) forepaw treading ("piano playing"), (2) head weaving and (3) hindleg abduction. Further, flat motility is scored. Each part of the syndrome is scored as follows: marked effect (score 2), weak syndrome (score 1) and no effect (score 0). The scores of the three observation times are added. Thus the maximum obtainable score for four rats is 24. The effect of the test substance is expressed as per cent inhibition relative to the control group.
The per cent inhibition of the piano playing syndrome is used as the response, and ED50 values are calculated by log-prohibit analysis.

5-HT1A [3] = target: T1, 5-HT1A; assay: Antagonism of the discriminative stimulus properties induced by 8-OHDPAT in rats; design: from tissue; host or cells: whole living animal, male Wistar rats, s.c. dosing; conditions: rat, sc, s.c. before 8-OHDPAT; rats trained at 0.4 mg/kg i.p.; inhibition of drug responding; read-out: ED50, 8-OH DPAT cue antagonism
Method: ANTAGONISM OF THE DISCRIMINATIVE STIMULUS PROPERTIES INDUCED BY 8-OHDPAT IN RATS.
This test model is used to determine the antagonist effects of a test compound on 5-HT1A receptors in vivo. A related method is described by Tricklebank, M. D., J. Neill, E. J. Kidd and J. R. Fozard, Eur. J. Pharmacol. 133, 47-56, 1987; Arnt. J., Pharmacology & Toxicology 64, 165-172, 1989.
Male Wistar rats are trained to discriminate between 8-OHDPAT (0.4 mg/kg, i.p., 15 min. pretreatment) and physiological saline in operant chambers equipped with two response levers. Between the levers a dipper is placed, where water rewards (0.1 ml) are presented. The rats are water deprived for at least 24 h and work in a fixed ratio (FR) schedule (final FR=32).
Following 8-OHDPAT administration responding is reinforced only on a designated (drug) lever, whereas responding on the opposite lever has no consequences. Following saline administration responding is reinforced on the lever opposite to the drug lever. Drug and saline trials alternate randomly between training days, although the same treatment is given maximally at 3 consecutive days. The level of discrimination occuracy is expressed as the per cent drug responses and is calculated as the number of correct responses×100 divided by the sum of the correct and incorrect responses before the first reward. When stable occuracy (mean correct responding=90 per cent; individual rats at least 75 per cent correct responding) is obtained test sessions are included between training days. Test compound is injected s.c. at appropriate time before 8-OHDPAT and the test begins 15 min after 8-OHDPAT injection. The test trial is terminated when a total of 32 responses are made on either lever or when 20 min have elapsed. No reward is given and the rats have free access to water for 20-30 min after the test. The effects are expressed as per cent inhibition of drug responding. Only results from rats making at least 10 responses on one lever are included in data analysis. Furthermore, only test sessions in which at least half of the rats respond are included.
The per cent inhibition of drug response obtained for each dose of test compound is used to calculate ED50 values by log-probit analysis.

O=C1CC2(CCCC2)CC(=O)N1CCCCN1CCN(c2ncccn2)CC1 [buspirone, reference compound]
ED50 (5-HT1A [1]): 0.62 µmol/kg
ED50 (5-HT1A [2]): 4.3 µmol/kg
ED50 (5-HT1A [3]): > 0.8 µmol/kg
